Data taken from publication PMC3574188 (Bioorganic & medicinal chemistry, 2012).

Key:
BoNT/A LC = conditions: cited from earlier work
BoNT/A LC (1-425aa) [1] = molecular target: T1, BoNT/A LC (1-425aa) (Clostridium botulinum, UniProt P0DPI0); type: biochemical
BoNT/A LC (1-425aa) [2] = molecular target: T1, BoNT/A LC (1-425aa); test: biochemical

T1 sequence (P0DPI0 1-425 limits assumed): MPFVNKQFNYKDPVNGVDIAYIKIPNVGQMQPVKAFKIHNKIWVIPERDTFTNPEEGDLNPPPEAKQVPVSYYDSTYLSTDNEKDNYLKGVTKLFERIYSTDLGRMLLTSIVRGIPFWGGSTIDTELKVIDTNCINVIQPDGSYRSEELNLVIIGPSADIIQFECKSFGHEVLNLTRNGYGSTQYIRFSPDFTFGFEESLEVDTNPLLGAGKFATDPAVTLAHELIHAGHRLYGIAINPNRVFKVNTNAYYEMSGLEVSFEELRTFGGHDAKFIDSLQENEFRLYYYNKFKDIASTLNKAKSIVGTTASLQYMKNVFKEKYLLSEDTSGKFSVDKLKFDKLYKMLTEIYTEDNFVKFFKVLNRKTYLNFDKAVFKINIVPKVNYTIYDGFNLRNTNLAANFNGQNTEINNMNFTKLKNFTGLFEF

| Compound | inhibitory potency against BoNT/A LC relative to parent 3a (BoNT/A LC (1-425aa) [1]) | fold lower IC50 value than parent 3a (BoNT/A LC (1-425aa) [1]) | Ki (BoNT/A LC (1-425aa) [2]) [µM] | fold improved potency (lower Ki) than parent lead 3a (BoNT/A LC (1-425aa) [2]) [fold] | further results |
| --- | --- | --- | --- | --- | --- |
| O=C(C[C@@H](CCO)c1ccc(Cl)cc1Cl)NO [XI] | – | – | – | – | fold lower inhibition constant than the parent X (BoNT/A LC): ~2 fold |
| O=C(CC12CC3CC(CC(Cl)(C3)C1)C2)NO [Compound 3f] | comparable with the lead molecule | – | – | – | – |
| O=C(CC12CC3CC(C1)CC(c1ccc(Cl)cc1)(C3)C2)NO [Compound 3o] | – | ~ 30 fold | ~0.03 | 17 | – |
| O=C(CC12CC3CC(C1)CC(c1ccc(Br)cc1)(C3)C2)NO [Compound 3p] | – | ~ 30 fold | ~0.03 | 17 | – |
| O=C(CC12CC3CC(CC(Br)(C3)C1)C2)NO [Compound 3g] | comparable with the lead molecule | – | – | – | – |
| O=C(CC12CC3CC(C1)CC(C(=O)O)(C3)C2)NO [Compound 3h] | no activity | – | – | – | – |
